Measured values reported in US20240408093A1, “HETEROBIFUNCTIONAL COMPOUNDS AND THEIR USE IN TREATING DISEASE” (HALDA THERAPEUTICS OPCO, INC., priority 2022, published 2024).
Like-named read-outs stand apart in the source and are kept apart here.

Experiments:
CCNK [1] = molecular target: T1, CCNK (Homo sapiens, UniProt O75909+Q16531+Q9NYV4); experiment: CCNK HiBiT degradation assay; assay type: cell-based; details: HEK293 LgBiT/CCNK HiBiT cells, 6 hours
T1 construct: expressed in transfected cells; host or cells: HEK293 LgBiT cells (Promega), lentiviral transduction, puromycin selection
Procedure: HEK293 LgBiT cells (Promega) were cultured in DMEM (Gibco 11995), supplemented with 10% Heat-inactivated FBS (Gibco A38400-01) and 1% Penicillin/Streptomycin (Gibco 15140-122) and 200 μg/ml Hygromycin B (Gibco 10-687-010) at 37° C. with 5% CO2 in a humidified tissue culture incubator. Cells were made stable for CCNK fused to a C-terminal HiBiT peptide by lentiviral transduction, followed by selection with 1 μg/ml Puromycin Dihydrochloride (Thermo A1113803). HEK293 LgBiT/CCNK HiBiT cells were seeded at 3000 cells/well in 384-well, tissue culture-treated white plates (Perkin Elmer 6007680) in 25 μL media lacking selection for 18-24 hours. Plates were spun at 300 g for 30 seconds and stored in the incubator overnight. After 24 hours, compounds were titrated in DMSO and added to media supplemented with Endurazine Substrate (Promega N2570). A 25 ul aliquot of 2× compound/endurazine in media were then added to the 384-well microplate with seeded cells. (Endurazine was used at a final concentration of 0.5×). The plate was spun at 300 g for 30 seconds and stored in the incubator. After 6 hours the plate was read on Envision MultiMode Plate Reader 2105 (Perkin Elmer) to measure luminescence signal. Data were plotted in Prism (Graphpad) and the concentration of compound at which 50% CCNK degradation occurs (DC50) was calculated.

CCNK [2] = experiment: Payload release assay (DC50 readout), CCNK degradation in the presence of recombinant target protein; assay type: cell-based
Procedure: Exemplary compounds were tested for ability to cause degradation of CCNK or GSPT1 in the presence of recombinant target protein.
HEK293 LgBiT/GSPT1 HiBiT CRISPR Knock-in cells (Promega) were cultured in DMEM (Gibco 11995), supplemented with 10% Heat-inactivated FBS (Gibco A38400-01) and 1% Penicillin/Streptomycin (Gibco 15140-122) and 200 Vg/ml Hygromycin B (Gibco 10-687-010) at 37° C. with 5% CO2 in a humidified tissue culture incubator. HEK293 LgBiT/CCNK HiBiT cells (in-house, described above) were cultured in DMEM (Gibco 11995), supplemented with 10% Heat-inactivated FBS (Gibco A38400-01) and 1% Penicillin/Streptomycin (Gibco 15140-122) 200 Vg/ml Hygromycin B (Gibco 10-687-010), and 1 Vg/ml Puromycin Dihydrochloride (Thermo A1113803) at 37° C. with 5% CO2 in a humidified tissue culture incubator. Cells were seeded (1000 cells/well for HEK293 LgBiT/GSPT1 HiBiT cells or 3000 cells/well for HEK293 LgBiT/CCNK HiBiT cells) 384-well, tissue culture-treated white plates (Perkin Elmer 6007680) in 10 μL media lacking selection for 18-24 hours. Plates were spun at 300 g for 30 seconds and stored in the incubator overnight. After 24 hours, a 5 μL aliquot of recombinant target protein (final concentration of either 5 μM KRAS amino acids 1-169, C51S, C80L, C118S, G12C or 3 μM EGFR amino acids 696-1022 or 3 μM EGFR amino acids 696-1022, T790M, L858R) was added to wells, followed immediately by a 5 μL aliquot of 4× compound-containing medium supplemented with Endurazine Substrate (Promega N2570) was added in each well, at a final top concentration of 10 μM test compound and 0.5× Endurazine, with 4-fold dilutions, using DMSO alone as a negative control. Plates were then spun at 300×g for 3 minutes again and cultured at 37° C. with 5% CO2. After 6 hours the plate was read on Envision MultiMode Plate Reader 2105 (Perkin Elmer) to measure luminescence signal. Data was normalized to DMSO treated cell wells. A four-parameter non-linear regression curve fit was applied to dose-response data in Prism to determine the half maximal growth inhibitory concentration (GI50) of each compound.

[3] = 0 μM recombinant EGFR T790M L858R, II-series and V-4 (CCNK readout inferred), read-out: DC50 at 0 μM EGFR T790M L858R
[4] = 0 μM recombinant EGFR WT, II-series and V-4 (CCNK readout inferred), read-out: DC50 at 0 μM EGFR WT
[5] = 3 μM recombinant EGFR T790M L858R, II-series and V-4 (CCNK readout inferred), read-out: DC50 at 3 μM EGFR T790M L858R
[6] = 3 μM recombinant EGFR WT, II-series and V-4 (CCNK readout inferred), read-out: DC50 at 3 μM EGFR WT
[7] = 0 μM recombinant KRAS G12C, II-series compounds (CCNK readout inferred), read-out: DC50 at 0 μM KRAS G12C
[8] = 5 μM recombinant KRAS G12C, II-series compounds (CCNK readout inferred), read-out: DC50 at 5 μM KRAS G12C

T1 sequence (O75909 whole entry, species assumed): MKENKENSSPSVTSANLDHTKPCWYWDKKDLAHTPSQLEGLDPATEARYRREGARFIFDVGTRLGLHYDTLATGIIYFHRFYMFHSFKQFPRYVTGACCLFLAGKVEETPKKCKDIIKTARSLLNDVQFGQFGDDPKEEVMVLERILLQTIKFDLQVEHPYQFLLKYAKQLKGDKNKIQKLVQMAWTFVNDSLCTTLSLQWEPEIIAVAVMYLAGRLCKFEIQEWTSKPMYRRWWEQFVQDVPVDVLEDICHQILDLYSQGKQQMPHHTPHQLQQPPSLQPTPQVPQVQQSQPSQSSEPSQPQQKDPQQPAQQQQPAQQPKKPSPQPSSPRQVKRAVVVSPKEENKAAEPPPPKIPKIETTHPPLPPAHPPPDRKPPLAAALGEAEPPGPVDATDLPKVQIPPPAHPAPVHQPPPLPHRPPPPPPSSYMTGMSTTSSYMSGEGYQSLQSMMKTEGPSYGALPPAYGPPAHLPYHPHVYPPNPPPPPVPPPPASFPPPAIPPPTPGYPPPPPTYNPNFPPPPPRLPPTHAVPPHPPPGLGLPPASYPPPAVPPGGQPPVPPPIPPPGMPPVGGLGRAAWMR
T1 sequence (Q9NYV4 whole entry, species assumed): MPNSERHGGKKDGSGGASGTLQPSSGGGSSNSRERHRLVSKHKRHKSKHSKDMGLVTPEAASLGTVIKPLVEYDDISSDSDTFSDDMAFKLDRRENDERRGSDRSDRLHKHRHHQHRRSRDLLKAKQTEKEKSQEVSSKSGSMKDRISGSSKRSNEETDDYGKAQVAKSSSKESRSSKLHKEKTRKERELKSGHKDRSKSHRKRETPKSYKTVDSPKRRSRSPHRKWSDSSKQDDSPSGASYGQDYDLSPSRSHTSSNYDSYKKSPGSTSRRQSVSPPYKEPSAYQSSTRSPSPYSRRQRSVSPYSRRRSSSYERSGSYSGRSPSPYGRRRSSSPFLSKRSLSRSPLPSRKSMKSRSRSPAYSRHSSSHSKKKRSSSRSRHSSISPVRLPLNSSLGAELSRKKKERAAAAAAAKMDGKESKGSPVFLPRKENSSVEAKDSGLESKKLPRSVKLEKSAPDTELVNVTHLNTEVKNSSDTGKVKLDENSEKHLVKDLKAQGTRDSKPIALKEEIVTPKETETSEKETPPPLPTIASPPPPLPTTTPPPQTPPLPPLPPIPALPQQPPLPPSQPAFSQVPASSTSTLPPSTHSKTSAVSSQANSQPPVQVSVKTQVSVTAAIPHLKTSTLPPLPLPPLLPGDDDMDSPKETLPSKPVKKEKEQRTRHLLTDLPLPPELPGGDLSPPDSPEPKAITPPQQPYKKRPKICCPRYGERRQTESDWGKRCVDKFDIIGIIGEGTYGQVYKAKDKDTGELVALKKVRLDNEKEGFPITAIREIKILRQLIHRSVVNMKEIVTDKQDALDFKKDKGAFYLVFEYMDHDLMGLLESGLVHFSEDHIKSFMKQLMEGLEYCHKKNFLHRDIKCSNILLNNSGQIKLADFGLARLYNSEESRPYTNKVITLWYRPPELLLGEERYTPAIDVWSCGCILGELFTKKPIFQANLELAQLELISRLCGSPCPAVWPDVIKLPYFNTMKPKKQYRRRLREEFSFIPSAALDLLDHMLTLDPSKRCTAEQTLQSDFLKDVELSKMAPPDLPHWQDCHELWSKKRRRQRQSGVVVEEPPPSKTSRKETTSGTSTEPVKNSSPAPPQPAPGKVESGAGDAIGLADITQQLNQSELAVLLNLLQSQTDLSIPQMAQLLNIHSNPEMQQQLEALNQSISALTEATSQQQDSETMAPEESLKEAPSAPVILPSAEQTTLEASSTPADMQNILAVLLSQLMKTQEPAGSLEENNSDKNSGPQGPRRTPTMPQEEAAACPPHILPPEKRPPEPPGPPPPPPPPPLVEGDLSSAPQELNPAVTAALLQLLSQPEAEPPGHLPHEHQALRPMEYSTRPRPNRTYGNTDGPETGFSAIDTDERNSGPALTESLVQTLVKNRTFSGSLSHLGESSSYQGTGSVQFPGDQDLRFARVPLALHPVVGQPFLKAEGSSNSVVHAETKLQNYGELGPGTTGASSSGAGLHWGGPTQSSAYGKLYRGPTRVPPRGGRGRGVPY
T1 sequence (Q16531 whole entry, species assumed): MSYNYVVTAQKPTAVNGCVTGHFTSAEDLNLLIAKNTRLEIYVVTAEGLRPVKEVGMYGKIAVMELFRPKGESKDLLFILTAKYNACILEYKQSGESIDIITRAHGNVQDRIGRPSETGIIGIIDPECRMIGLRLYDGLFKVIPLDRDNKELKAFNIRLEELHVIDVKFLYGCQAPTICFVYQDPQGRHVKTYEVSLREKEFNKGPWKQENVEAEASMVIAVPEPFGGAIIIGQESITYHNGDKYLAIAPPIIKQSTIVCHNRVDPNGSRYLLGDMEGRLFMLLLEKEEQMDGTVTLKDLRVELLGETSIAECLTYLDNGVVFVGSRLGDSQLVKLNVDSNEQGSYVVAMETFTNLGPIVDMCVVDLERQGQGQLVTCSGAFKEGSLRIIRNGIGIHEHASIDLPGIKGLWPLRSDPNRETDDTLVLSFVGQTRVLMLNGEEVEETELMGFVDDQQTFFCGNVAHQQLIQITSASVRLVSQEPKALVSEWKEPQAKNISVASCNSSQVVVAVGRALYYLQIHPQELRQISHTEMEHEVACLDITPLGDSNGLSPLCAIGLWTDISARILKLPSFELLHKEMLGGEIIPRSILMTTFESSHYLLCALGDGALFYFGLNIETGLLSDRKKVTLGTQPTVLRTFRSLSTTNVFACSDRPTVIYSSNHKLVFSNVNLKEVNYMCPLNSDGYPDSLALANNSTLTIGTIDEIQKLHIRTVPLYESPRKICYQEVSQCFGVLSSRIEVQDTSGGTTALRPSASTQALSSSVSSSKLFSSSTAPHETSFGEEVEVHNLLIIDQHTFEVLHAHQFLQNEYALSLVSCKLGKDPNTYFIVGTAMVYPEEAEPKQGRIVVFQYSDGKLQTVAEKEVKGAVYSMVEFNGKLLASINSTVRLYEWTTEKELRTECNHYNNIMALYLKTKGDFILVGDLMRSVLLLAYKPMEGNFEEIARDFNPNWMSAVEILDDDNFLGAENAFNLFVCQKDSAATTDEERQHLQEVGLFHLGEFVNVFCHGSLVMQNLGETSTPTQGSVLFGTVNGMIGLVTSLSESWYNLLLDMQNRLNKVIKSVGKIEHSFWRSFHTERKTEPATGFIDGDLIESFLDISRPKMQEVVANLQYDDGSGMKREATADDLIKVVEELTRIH

DC50 (CCNK [1]) [nM] | DC50 (CCNK [2]; [3]) [nM] | DC50 (CCNK [2]; [4]) [nM] | DC50 (CCNK [2]; [5]) [nM] | DC50 (CCNK [2]; [6]) [nM] | Structure (SMILES) | DC50 (CCNK [2]; [7]) [nM] | DC50 (CCNK [2]; [8]) [nM]
– | < 250 | < 250 | – | – | C=C(COc1cc(-c2ccccn2)ccc1CNc1nc(N[C@H](CC)CO)nc2c1ncn2C(C)C)C(=O)N[C@@H]1CN(c2nc(Nc3cn(C)nc3OC)c3ncn(C)c3n2)C[C@H]1F [II-183] | – | –
< 250 | 250 to 5000 | 250 to 5000 | < 250 | < 250 | C=C(COC(=O)N1CCN(c2nc(NCc3nc4cc(C)ccc4[nH]3)n3ncc(Br)c3n2)CC1)C(=O)N1C[C@H](COc2nc(Nc3cnn(C)c3)nc3[nH]cc(Cl)c23)[C@@H](OC)C1 [II-185] | – | –
< 250 | < 250 | < 250 | – | > 10000 | C=C(CN1CCN(c2nc(NCc3nc4cc(C)ccc4[nH]3)n3ncc(Br)c3n2)CC1)C(=O)Nc1cc(Nc2nccc(-c3cn(C)c4ccccc34)n2)c(OC)cc1N(C)CCN(C)C [II-188] | – | –
– | 250 to 5000 | 5000 to 10000 | – | – | C=C(CN1CCN(c2nc(NCc3nc4cc(C)ccc4[nH]3)n3ncc(Br)c3n2)CC1)C(=O)Nc1cccc(-c2cccc3cnc(Nc4ccc(N5CCN(CCO)CC5)c(F)c4F)nc23)c1 [II-191] | – | –

Continued, compound first:

Structure (SMILES) | DC50 (CCNK [1]) [nM] | DC50 (CCNK [2]; [3]) [nM] | DC50 (CCNK [2]; [4]) [nM] | DC50 (CCNK [2]; [5]) [nM] | DC50 (CCNK [2]; [6]) [nM] | DC50 (CCNK [2]; [7]) [nM] | DC50 (CCNK [2]; [8]) [nM]
C=C(COC(=O)n1c(CNc2nc(N3CCNCC3)nc3c(Br)cnn23)nc2cc(C)ccc21)C(=O)N1C[C@H](COc2nc(Nc3cnn(C)c3)nc3[nH]cc(Cl)c23)[C@@H](OC)C1 [Compound V-4] | < 250 | < 250 | < 250 | < 250 | < 250 | – | –
C=C(COc1cc(-c2ccccn2)ccc1CNc1nc(N[C@H](CC)CO)nc2c1ncn2C(C)C)C(=O)N1CCN(c2nc(OC[C@@H]3CCCN3C)nc3c2CCN(c2cccc4cccc(Cl)c24)C3)C[C@@H]1CC#N [II-186] | 250 to 5000 | – | – | – | – | 250 to 5000 | < 250
C=C(CN1CCN(c2nc(NCc3nc4cc(C)ccc4[nH]3)n3ncc(Br)c3n2)CC1)C(=O)N1CCN(c2nc(OC[C@@H]3CCCN3C)nc3c2CCN(c2cccc4cccc(Cl)c24)C3)C[C@@H]1CC#N [II-190] | < 250 | – | – | – | – | < 250 | < 250
